Laboratory results taken from ChEMBL document CHEMBL1938277, “N-acylaminophenothiazines: neuroprotective agents displaying multifunctional activities for a potential treatment of Alzheimer's disease” (Eur J Med Chem, 2011).

What was measured:
in vitro = conditions: PAMPA
Description: Permeability of the compound by PAMPA assay

SH-SY5Y [1] = assay: Neuroprotective activity against H2O2-induced cell death in human SH-SY5Y cells assessed as LDH release at 30 uM incubated for 24 hrs before H2O2 challenge measured after 24 hrs relative to control; assay type: functional
SH-SY5Y [2] = assay: Neuroprotective activity against H2O2-induced cell death in human SH-SY5Y cells assessed as LDH release at 1 uM incubated for 24 hrs before H2O2 challenge measured after 24 hrs relative to control; assay type: functional
SH-SY5Y [3] = assay: Neuroprotective activity against H2O2-induced cell death in human SH-SY5Y cells assessed as LDH release at 10 uM incubated for 24 hrs before H2O2 challenge measured after 24 hrs relative to control; assay type: functional
Cholinesterase = Cholinesterase (Equus caballus, UniProt P81908)
Description: Inhibition of BuChE in horse serum using butyrylthiocholine as substrate by Ellman method

SH-SY5Y [4] = assay: Neuroprotective activity against H2O2-induced cell death in human SH-SY5Y cells assessed as LDH release at 3 uM incubated for 24 hrs before H2O2 challenge measured after 24 hrs relative to control; assay type: functional
Acetylcholinesterase = target: T1, Acetylcholinesterase (Bos taurus, UniProt P23795); assay: biochemical
T1 sequence (P23795 whole entry): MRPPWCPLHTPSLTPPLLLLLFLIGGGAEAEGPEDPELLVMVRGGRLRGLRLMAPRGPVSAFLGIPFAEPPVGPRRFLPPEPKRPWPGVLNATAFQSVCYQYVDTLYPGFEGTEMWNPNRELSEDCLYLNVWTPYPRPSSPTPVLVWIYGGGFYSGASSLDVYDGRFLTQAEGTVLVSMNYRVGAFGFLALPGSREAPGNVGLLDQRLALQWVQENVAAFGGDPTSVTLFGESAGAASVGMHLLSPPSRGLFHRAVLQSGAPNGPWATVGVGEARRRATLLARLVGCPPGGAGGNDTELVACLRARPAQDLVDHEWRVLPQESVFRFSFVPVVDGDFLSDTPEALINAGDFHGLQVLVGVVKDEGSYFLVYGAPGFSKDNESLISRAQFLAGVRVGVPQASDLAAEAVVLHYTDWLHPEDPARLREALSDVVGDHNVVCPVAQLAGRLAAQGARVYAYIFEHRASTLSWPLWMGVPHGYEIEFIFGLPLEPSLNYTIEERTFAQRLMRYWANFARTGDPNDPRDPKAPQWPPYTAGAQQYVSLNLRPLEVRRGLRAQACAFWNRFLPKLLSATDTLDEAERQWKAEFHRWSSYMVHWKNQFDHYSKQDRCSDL
Description: Inhibition of AChE in bovine erythrocytes using acetylthiocholine as substrate by Ellman method

SH-SY5Y [5] = assay: Neuroprotective activity against okadaic acid-induced cell death in human SH-SY5Y cells assessed as LDH release at 0.3 uM treated 24 hrs before okadaic acid challenge measured after 24 hrs relative to control; assay type: functional
SH-SY5Y [6] = assay: Neuroprotective activity against rotenone/oligomycin A-induced cell death in human SH-SY5Y cells assessed as LDH release at 0.1 uM after 24 hrs relative to control; assay type: functional
SH-SY5Y [7] = assay: Cytotoxicity against human SH-SY5Y cells; assay type: cell-based
SH-SY5Y [8] = assay: Neuroprotective activity against rotenone/oligomycin A-induced cell death in human SH-SY5Y cells assessed as LDH release at 0.3 uM treated 24 hrs before rotenone/oligomycin A challenge measured after 24 hrs relative to control; assay type: functional
SH-SY5Y [9] = assay: Neuroprotective activity against rotenone/oligomycin A-induced cell death in human SH-SY5Y cells assessed as LDH release at 0.3 uM after 24 hrs relative to control; assay type: functional
SH-SY5Y [10] = assay: Antioxidant activity in human SH-SY5Y cells assessed as sequestering of rotenone/oligomycin A-induced mitochondrial free radicals at 0.3 uM after 120 mins by DCFH-DA assay; assay type: functional
SH-SY5Y [11] = assay: Neuroprotective activity against rotenone/oligomycin A-induced cell death in human SH-SY5Y cells assessed as LDH release at 0.1 uM treated 24 hrs before rotenone/oligomycin A challenge measured after 24 hrs relative to control; assay type: functional
SH-SY5Y [12] = assay: Neuroprotective activity against rotenone/oligomycin A-induced cell death in human SH-SY5Y cells assessed as LDH release at 1 uM after 24 hrs relative to control; assay type: functional
SH-SY5Y [13] = assay: Neuroprotective activity against rotenone/oligomycin A-induced cell death in human SH-SY5Y cells assessed as LDH release at 1 uM treated 24 hrs before rotenone/oligomycin A challenge measured after 24 hrs relative to control; assay type: functional
SH-SY5Y [14] = assay: Neuroprotective activity against rotenone/oligomycin A-induced cell death in human SH-SY5Y cells assessed as LDH release at 3 uM treated 24 hrs before rotenone/oligomycin A challenge measured after 24 hrs relative to control; assay type: functional
SH-SY5Y [15] = assay: Neuroprotective activity against rotenone/oligomycin A-induced cell death in human SH-SY5Y cells assessed as LDH release at […] after 24 hrs relative to control; assay type: functional
SH-SY5Y [16] = assay: Inhibition of potassium chloride-induced cytosolic calcium level in human SH-SY5Y cells at 10 uM treated after 10 mins before potassium chloride challenge by Fluo-4/AM fluorescence assay; assay type: functional

Chain of Cholinesterase (P81908 whole entry): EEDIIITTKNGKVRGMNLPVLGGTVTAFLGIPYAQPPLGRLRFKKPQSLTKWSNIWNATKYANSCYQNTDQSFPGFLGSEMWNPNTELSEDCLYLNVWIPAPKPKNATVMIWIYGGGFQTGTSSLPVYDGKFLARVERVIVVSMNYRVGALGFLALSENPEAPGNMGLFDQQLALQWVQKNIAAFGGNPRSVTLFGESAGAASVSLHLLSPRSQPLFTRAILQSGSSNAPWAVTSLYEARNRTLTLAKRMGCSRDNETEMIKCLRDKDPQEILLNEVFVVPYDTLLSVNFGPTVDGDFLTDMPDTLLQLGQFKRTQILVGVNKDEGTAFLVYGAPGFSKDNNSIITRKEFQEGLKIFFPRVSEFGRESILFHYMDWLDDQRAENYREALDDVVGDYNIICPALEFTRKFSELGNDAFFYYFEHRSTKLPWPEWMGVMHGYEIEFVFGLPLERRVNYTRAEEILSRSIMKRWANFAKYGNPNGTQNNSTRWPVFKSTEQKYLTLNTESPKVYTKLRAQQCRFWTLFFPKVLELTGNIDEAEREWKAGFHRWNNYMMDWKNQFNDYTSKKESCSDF

SMILES | Papp (in vitro) [×10⁻⁶ cm/s] | Activity (SH-SY5Y [1]) [%] | Activity (SH-SY5Y [2]) [%] | Activity (SH-SY5Y [3]) [%] | IC50 (Cholinesterase) [µM] | Activity (SH-SY5Y [4]) [%] | IC50 (Acetylcholinesterase) [µM] | Activity (SH-SY5Y [5]) [%] | Activity (SH-SY5Y [6]) [%] | Activity (SH-SY5Y [7]) | Activity (SH-SY5Y [8]) [%] | Activity (SH-SY5Y [9]) [%] | Activity (SH-SY5Y [10]) [%] | Activity (SH-SY5Y [11]) [%] | Activity (SH-SY5Y [12]) [%] | Activity (SH-SY5Y [13]) [%] | Activity (SH-SY5Y [14]) [%] | Activity (SH-SY5Y [15]) [%] | inhibition at 10 µM (SH-SY5Y [16]) [%]
CN(C)CC(=O)NN1c2ccccc2Sc2ccc(Cl)cc21 | 13.5 | 23.2 | 15.6 | 42.6 | 7.1 | 29.5 | > 100 |  |  |  |  |  |  |  |  |  |  |  | 
COc1ccc2c3c1O[C@H]1C[C@@H](O)C=C[C@@]31CCN(C)C2 [GALANTAMINE] |  |  |  |  |  |  |  | 36 |  |  |  |  |  |  |  |  |  |  | 
CN1CCN(CCC(=O)NN2c3ccccc3Sc3cc(Cl)ccc32)CC1 | 13.8 | 72.8 | 43.9 | 68.6 | 0.9 | 56.6 | > 100 |  |  |  |  |  |  |  |  |  |  |  | 
O=C(CCN1CCCC1)NN1c2ccccc2Sc2cc(Cl)ccc21 | 16.4 | 49 | 34.4 | 29.4 | 3 | 57.2 | > 100 |  |  |  |  |  |  |  |  |  |  |  | 
O=C(CN1CCCCC1)NN1c2ccccc2Sc2ccc(Cl)cc21 | 9.1 | 76.4 | 66.1 | 73.8 | > 100 | 80.8 | > 100 |  |  |  |  |  |  |  |  |  |  |  | 
O=C(CN1CCCC1)NN1c2ccccc2Sc2ccc(Cl)cc21 | 11.2 | 55.6 | 17.4 | 54.8 | 4.3 | 48.9 | > 100 |  |  |  |  |  |  |  |  |  |  |  | 
COc1ccc2c(c1)Sc1ccccc1N2NC(=O)CCN1CCN(C)CC1 | 16.8 | 55.1 | 49.5 | 66.5 | 2 | 42.1 | > 100 |  | 66.3 | Non-toxic | 49.4 | 57.9 | 24.2 | 37.2 | 65.4 | 50.8 |  |  | 
Cc1c(C)c2c(c(C)c1O)CCC(C)(C(=O)O)O2 (stereo unspecified) [TROLOX] |  | 57.7 |  |  |  |  |  |  |  |  |  |  | 27.8 |  |  |  | 65.1 | 63.7 | 
COc1ccc2c(c1)Sc1ccccc1N2NC(=O)CCN1CCCC1 | 8.7 | 0 | 17.8 | 0 | 0.8 | 11.8 | > 100 |  |  |  |  |  |  |  |  |  |  |  | 
COC(=O)C1=C(C)NC(C)=C(C(=O)OC)C1c1ccccc1[N+](=O)[O-] [NIFEDIPINE] |  |  |  |  |  |  |  |  |  |  |  |  |  |  |  |  |  |  | 45
O=C(CN1CCCCC1)NN1c2ccccc2Sc2cccc(Cl)c21 | 13.9 | 32.6 | 1.1 | 0 | 2.2 | 9.9 | > 100 |  |  |  |  |  |  |  |  |  |  |  | 
CN1CCN(CCC(=O)NN2c3ccccc3Sc3cc([N+](=O)[O-])ccc32)CC1 | 14.6 | 31.7 | 41.3 | 46.2 | 1.5 | 46.5 | > 100 |  |  |  |  |  |  |  |  |  |  |  | 
CN(C)CC(=O)NN1c2ccccc2Sc2ccccc21 | 18.3 | 22 | 30.5 | 38.6 | 1.7 | 26.3 | > 100 |  |  |  |  |  |  |  |  |  |  |  | 
O=C(CCN1CCCC1)NN1c2ccccc2Sc2ccccc21 | 17.3 | 72.5 | 90.1 | 88 | 1.4 | 81.4 | > 100 |  | 66.1 | Non-toxic | 42.4 | 63.7 | 23.8 | 58.8 | 52.6 | 16.5 |  |  | 
O=C(CN1CCCCC1)NN1c2ccccc2Sc2cc(Cl)ccc21 | 14.7 | 17.8 | 25.4 | 44.9 | 0.7 | 55.2 | > 100 |  |  |  |  |  |  |  |  |  |  |  | 
CN(C)CC(=O)NN1c2ccccc2Sc2cc(Cl)ccc21 | 15.5 | 9.7 | 59.8 | 28.2 | 5 | 62.7 | > 100 |  |  |  |  |  |  |  |  |  |  |  | 
CC(=O)NN1c2ccccc2Sc2cc(Cl)ccc21 | 9.8 | 21.2 | 40.3 | 37.2 | > 100 | 52.2 | > 100 |  |  |  |  |  |  |  |  |  |  |  | 
O=C(CN1CCCC1)NN1c2ccccc2Sc2ccccc21 | 10.5 | 23.3 | 13.1 | 18.9 | 0.8 | 35.6 | > 100 |  |  |  |  |  |  |  |  |  |  |  | 
O=C(CN1CCCCC1)NN1c2ccccc2Sc2ccccc21 | 16.4 | 10.1 | 27.2 | 9.7 | 0.4 | 26.1 | > 100 |  |  |  |  |  |  |  |  |  |  |  | 
CN1CCN(CCC(=O)NN2c3ccccc3Sc3ccccc32)CC1 | 17 | 6.3 | 82.9 | 22.8 | 1.3 | 34.5 | > 100 |  |  |  |  |  |  |  |  |  |  |  | 
